Data reported in US20030175216A1, “Oral antimicrobial and anti-odor compositions” (Innoscent LTD., priority 2001, published 2003).

What was measured:
C. albicans = experiment: Agar plate zone of growth inhibition; format: cell-based, Candida albicans
Protocol: (§1) The higher alcohols were tested for antimicrobial activity against Gram positive bacteria (Streptococcus mutans), Gram negative bacteria (Pseudomonas spp., Escherichia coli, […]) and the yeast Candida albicans. […] Five microliters of the higher alcohol solutions were placed on the surface of a rich (Brain-heart infusion) agar plate immediately after seeding with a mono-specific bacterial or yeast culture. The plates were incubated for 24-48 hours, and, following further microbial proliferation, the diameters of the zones of growth inhibition were measured (results expressed in centimeters).

C. xerosis = experiment: Agar plate zone of growth inhibition; format: cell-based, Corynebacterium xerosis
Protocol: (§2) Five microliters of the higher alcohol solutions were placed on the surface of a rich (Brain-heart infusion) agar plate immediately after seeding with a mono-specific bacterial or yeast culture. The plates were incubated for 24-48 hours, and, following further microbial proliferation, the diameters of the zones of growth inhibition were measured (results expressed in centimeters). In a further set of experiments, the effect of solvent type on the antimicrobial activity of the C9 alcohol was investigated. […] These solutions were tested for antimicrobial activity towards three microorganisms (M. lysodeikticus, S. mutans and Corynebacterium xerosis) using the same assay as described above.

S. mutans = experiment: Agar plate zone of growth inhibition; format: cell-based, Streptococcus mutans
Protocol: as §2, with “The higher alcohols were tested for antimicrobial activity against Gram positive bacteria (Streptococcus mutans), Gram negative bacteria (Pseudomonas spp., Escherichia coli, […]) and the yeast Candida albicans. […] Five” for “Five”, “above. The relationship of the concentration of the C9 alcohol to its antimicrobial activity was also investigated. […] These solutions were tested in the assay described above for their ability to inhibit the growth of the bacteria M. lysodeikticus and S. mutans.” for “above.”

[1] = test system: bacteria and yeast tested; experiment: Agar plate growth inhibition, summary statements over the test microorganisms; format: cell-based; conditions: for antimicrobial activity (summary): C. xerosis
Protocol: as §2, with “The higher alcohols were tested for antimicrobial activity against Gram positive bacteria (Streptococcus mutans), Gram negative bacteria (Pseudomonas spp., Escherichia coli, […]) and the yeast Candida albicans. […] Five” for “Five”, “above. The relationship of the concentration of the C9 alcohol to its antimicrobial activity was also investigated. […] These solutions were tested in the assay described above for their ability to inhibit the growth of the bacteria M. lysodeikticus and S. mutans.” for “above.”

M. lysodeikticus = experiment: Agar plate zone of growth inhibition; format: cell-based
Protocol: as §2, with “above. The relationship of the concentration of the C9 alcohol to its antimicrobial activity was also investigated. […] These solutions were tested in the assay described above for their ability to inhibit the growth of the bacteria M. lysodeikticus and S. mutans.” for “above.”

E. faecalis = experiment: Agar plate zone of growth inhibition; format: cell-based
Protocol: as §1

Pseudomonas aeruginosa = experiment: Agar plate zone of growth inhibition; format: cell-based
Protocol: as §1

E. coli = experiment: Agar plate zone of growth inhibition; format: cell-based, Escherichia coli
Protocol: as §1

[2] = test system: odor formation in freshly-taken morning saliva; experiment: Inhibition of in vitro odor formation by higher alcohols (saliva in decarboxylase medium); format: cell-based
Protocol: A series of test tubes were prepared, each containing 5 ml of decarboxylase medium (0.5% peptone, 0.3% yeast extract, 0.1% dextrose and 0.02% bromocresol purple). […] The tubes were incubated at 37° C. for three days. Following incubation, the odor was determined by a panel of odor judges, using the following semi-quantitative scale 0=no odor 1=very slight odor […] The higher alcohols tested were alkanols of chain length C8, C9, C10, C11, C12, C14, C16 and C18.

[3] = 5 μl of 0.1% solution in 70% ethanol
[4] = 5 μl of 1% solution (C8-C12 in 70% ethanol, C14-C18 in 100% ethanol)
[5] = 1% in 70% ethanol, solvent study
[6] = 0.3% C9 in 70% ethanol, concentration series
[7] = 0.5% C9 in 70% ethanol, concentration series
[8] = 1% C9 in 70% ethanol, concentration series
[9] = 2% C9 in 70% ethanol, concentration series
[10] = 3% C9 in 70% ethanol, concentration series
[11] = 4% C9 in 70% ethanol, concentration series
[12] = 5% C9 in 70% ethanol, concentration series
[13] = 10% C9 in 70% ethanol, concentration series
[14] = 10 μl of 1% solution, scale 0-5
[15] = 20 μl of 1% solution, scale 0-5
[16] = 30 μl of 1% solution, scale 0-5
[17] = 40 μl of 1% solution, scale 0-5

SMILES: CCCCCCCCCO [C9, 1-nonanol]
- diameter of zone of growth inhibition, C. albicans (C. albicans; [3]): 0.8 centimeters
- diameter of zone of growth inhibition, C. albicans (C. albicans; [4]): 0.9 centimeters
- diameter of zone of growth inhibition, C. xerosis (C. xerosis; 1% C9 in 2-propanol): 1.0 centimeters
- diameter of zone of growth inhibition, C. xerosis (C. xerosis; 1% C9 in 100% methanol): 0.4 centimeters
- diameter of zone of growth inhibition, C. xerosis (C. xerosis; [5]): 0.9 centimeters
- diameter of zone of growth inhibition, S. mutans (S. mutans; [6]): 0.8 centimeters
- diameter of zone of growth inhibition, S. mutans (S. mutans; [7]): 0.9 centimeters
- diameter of zone of growth inhibition, S. mutans (S. mutans; 1% C9 in 2-propanol): 1.3 centimeters
- diameter of zone of growth inhibition, S. mutans (S. mutans; [8]): 0.7 centimeters
- diameter of zone of growth inhibition, S. mutans (S. mutans; 1% C9 in 100% methanol): 0.9 centimeters
- diameter of zone of growth inhibition, S. mutans (S. mutans; [5]): 0.8 centimeters
- diameter of zone of growth inhibition, S. mutans (S. mutans; [9]): 0.8 centimeters
- diameter of zone of growth inhibition, S. mutans (S. mutans; [10]): 0.9 centimeters
- diameter of zone of growth inhibition, S. mutans (S. mutans; [11]): 1.0 centimeters
- diameter of zone of growth inhibition, S. mutans (S. mutans; [12]): 0.9 centimeters
- diameter of zone of growth inhibition, S. mutans (S. mutans; [3]): 0.9 centimeters
- diameter of zone of growth inhibition, S. mutans (S. mutans; [4]): 0.9 centimeters
- diameter of zone of growth inhibition, S. mutans (S. mutans; [13]): 1.0 centimeters
- antimicrobial activity (summary) ([1]; 1% C9 dissolved in water, M. lysodeikticus, S. mutans): almost devoid of activity
- antimicrobial activity (summary) ([1]; 1% C9 solutions made in the lower alcohols, M. lysodeikticus, S. mutans): highly active
- share of the maximal antibacterial effect ([1]; C9 0.1-0.2% in 70% ethanol, M. lysodeikticus, S. mutans): more than 75 % of the maximal effect
- effect on microbial growth (summary) ([1]; Table VI microorganisms): inhibit microbial growth
- spectrum of activity ([1]; among the higher alcohols tested): widest spectrum of activity
- C9 alcohol concentration giving the greatest antibacterial activity ([1]; in 70% ethanol, range 0-10%, M. lysodeikticus, S. mutans): ≥ 3%
- diameter of zone of growth inhibition, M. lysodeikticus (M. lysodeikticus; 0.1% C9 in 70% ethanol, concentration series): 0.7 centimeters
- diameter of zone of growth inhibition, M. lysodeikticus (M. lysodeikticus; 0.2% C9 in 70% ethanol, concentration series): 0.9 centimeters
- diameter of zone of growth inhibition, M. lysodeikticus (M. lysodeikticus; [6]): 0.7 centimeters
- diameter of zone of growth inhibition, M. lysodeikticus (M. lysodeikticus; [7]): 0.7 centimeters
- diameter of zone of growth inhibition, M. lysodeikticus (M. lysodeikticus; 1% C9 in 2-propanol): 1.3 centimeters
- diameter of zone of growth inhibition, M. lysodeikticus (M. lysodeikticus; [8]): 0.7 centimeters
- diameter of zone of growth inhibition, M. lysodeikticus (M. lysodeikticus; 1% C9 in 100% methanol): 0.9 centimeters
- diameter of zone of growth inhibition, M. lysodeikticus (M. lysodeikticus; [5]): 0.7 centimeters
- diameter of zone of growth inhibition, M. lysodeikticus (M. lysodeikticus; [9]): 0.9 centimeters
- diameter of zone of growth inhibition, M. lysodeikticus (M. lysodeikticus; [10]): 0.9 centimeters
- diameter of zone of growth inhibition, M. lysodeikticus (M. lysodeikticus; [11]): 0.9 centimeters
- diameter of zone of growth inhibition, M. lysodeikticus (M. lysodeikticus; [12]): 0.9 centimeters
- diameter of zone of growth inhibition, M. lysodeikticus (M. lysodeikticus; [13]): 0.9 centimeters
- diameter of zone of growth inhibition, E. faecalis (E. faecalis; [3]): 0.7 centimeters
- diameter of zone of growth inhibition, E. faecalis (E. faecalis; [4]): 0.9 centimeters
- diameter of zone of growth inhibition, Pseudomonas aeruginosa (Pseudomonas aeruginosa; 5 μl of 0.05% solution in 70% ethanol): 0.7 centimeters
- diameter of zone of growth inhibition, Pseudomonas aeruginosa (Pseudomonas aeruginosa; [3]): 0.7 centimeters
- diameter of zone of growth inhibition, Pseudomonas aeruginosa (Pseudomonas aeruginosa; [4]): 0.6 centimeters
- diameter of zone of growth inhibition, E. coli (E. coli; [3]): 1.0 centimeters
- diameter of zone of growth inhibition, E. coli (E. coli; [4]): 1.0 centimeters
- effect on in vitro odor formation (summary) ([2]; 10-50 μl of 1% solution): inhibition of odor formation
- Odor Score (Judge 1) [2, 14]: 4
- Odor Score (Judge 2) [2, 14]: 4
- Odor Score (Judge 1) [2, 15]: 4
- Odor Score (Judge 2) [2, 15]: 4
- Odor Score (Judge 1) [2, 16]: 0
- Odor Score (Judge 2) [2, 16]: 0
- Odor Score (Judge 1) [2, 17]: 0
- Odor Score (Judge 2) [2, 17]: 0
- Odor Score (Judge 1) ([2]; 50 μl of 1% solution (C8-C12 in 70% ethanol, C14-C18 in 100% ethanol) in 5 ml medium + 200 μl saliva, 3 days 37° C., scale 0 no odor to 5 extremely foul): 0
- Odor Score (Judge 2) ([2]; 50 μl of 1% solution, scale 0-5): 0
